Reference: ChEMBL document CHEMBL3392922, “MMV box screening in the Dd2 P. falciparum strain”
pIC50: −log10 of the molar value.

System: Plasmodium falciparum
Experiment: MMV: IC50 determined against P. falciparum Dd2-luc strain using a Malaria Sybr Green I Fluorescence assay. Starting conditions were 1% trophozoite synchronised parasites at 2% haematocrit. Fluorescence detection completed after 48hr incubation at 37 degrees C under 1% O2, 3% CO2 and balance N2.
Type: functional, organism-based
Conditions: Dd2, 48 h

| Structure (SMILES) | pIC50 |
| --- | --- |
| O=C(Nc1ccc(Cl)c(Cl)c1)Nc1ccc(Cl)c(Cl)c1 | 5.41 |
| COc1ccc(-c2cc3c(nn2)-c2ccccc2C3=O)cc1 | 6.14 |
| COc1ccc(-c2c(C)nn3c(N)c(C#N)cnc23)cc1OC | 6.52 |
| COc1ccc2c(c1)C1(Nc3ccccc3-c3nc4ccccc4n31)C(=O)N2 (stereo not given) | 6.62 |
| COc1cccc(Cn2c(Oc3ccccc3)nc3c2c(=O)n(C)c(=O)n3C)c1 | 5.94 |
| OC(CNCC1CCCO1)Cn1c2ccc(Cl)cc2c2cc(Cl)ccc21 (stereo not given) | 6.13 |
| CCN(CC)CCNc1ncnc2c1[nH]c1ccc(Cl)cc12 | 6.43 |
| CN1CCN(c2ncnc3c2[nH]c2ccc(Cl)cc23)CC1 | 5.93 |
| CC1(c2ccccc2)Nc2ccccc2-c2nc3ccccc3n21 (stereo not given) | 6.58 |
| COc1ccc(CCN2C(=O)c3[nH]nc(-c4cc(Cl)c(C)cc4O)c3C2c2ccccc2F)cc1 (stereo not given) | 5.50 |
| COc1cccc(C2(C)Nc3ccccc3-c3nc4ccccc4n32)c1 (stereo not given) | 5.85 |
| CC(C)CNC(=O)c1c(N)n(CCc2ccccc2F)c2nc3ccccc3nc12 | 6.17 |
| CC(C)(C)CC(C)(C)NCC(O)COc1ccc(Cl)cc1Cl (stereo not given) | 6.31 |
| Cc1cccc(-n2ncc3c(O)nc(-n4nc(C)cc4NC(=O)c4cc5ccccc5o4)nc32)c1 | 6.00 |
| O=C(Nc1ccccc1O)c1ccc(Oc2cccc(C(=O)Nc3ccccc3O)c2)cc1 | 6.70 |
| Cc1ccc(-c2cc3c(nn2)-c2ccccc2C3=O)cc1 | 5.90 |
| Oc1ccccc1CN1CCC2(CCCN(Cc3ccccc3F)C2)C1 (stereo not given) | 6.19 |
| N=c1n(CCN2CCCCC2)c2ccccc2n1CC(O)c1cccc(Br)c1 (stereo not given) | 5.96 |
| COc1cccc(O)c1CN1CCC2(CCCN(Cc3ccc(F)cc3)C2)C1 (stereo not given) | 6.30 |
| CCOC(=O)C1=C(C)N=c2sc(=Cc3ccccc3O)c(=O)n2C1c1ccc(OC)c2ccccc12 (stereo not given) | 5.82 |
| Cc1ccc(-c2cc(C(=O)Nc3ccc(S(=O)(=O)N4CCCCC4)cc3)[nH]n2)c(O)c1 | 5.63 |
| CCOC(=O)C1=C(C)N=c2sc(=Cc3cc(Cl)ccc3O)c(=O)n2C1c1ccc(OC)cc1 (stereo not given) | 6.28 |
| COc1ccc(-c2nc(NC(=O)CS(=O)(=O)c3ccc(F)cc3)sc2C)cc1 | 6.29 |

| Structure (SMILES) | pIC50 |
| --- | --- |
| FC(F)(F)c1cccc(Nc2nc3ccccc3nc2Nc2cccc(C(F)(F)F)c2)c1 | 6.13 |
| FC(F)(F)c1ccc(Nc2nnnc3ccccc23)cc1 | 5.40 |
| c1ccc(-c2ccc(-c3nc4ccccc4[nH]3)cc2)cc1 | 5.70 |
| CCC(C)NCC(O)(c1ccc(Cl)cc1)c1ccc(Cl)cc1 (stereo not given) | 6.26 |
| COc1ccc(CN2CCCC(C(=O)c3ccc(C(F)(F)F)cc3)C2)c(O)c1 (stereo not given) | 6.20 |
| COc1cccc(NC(=O)[C@H](C(C)C)n2c(=O)[nH]c3ccccc3c2=O)c1 | 6.80 |
| O=c1nc(C=Cc2ccc(Br)cc2)oc2ccccc12 | 5.23 |
| COc1ccc2nc(N)nc(C)c2c1 | 5.73 |
| COc1cccc(NC(=O)Cn2c(C)c(C#N)c3ccccc32)c1 | 5.90 |
| CCC(c1ccccc1)c1nn2c(-c3cccs3)nnc2s1 (stereo not given) | 6.47 |
| CC(=O)c1ccc(NC(=O)CSc2nc(-c3ccccc3Cl)ns2)cc1 | 5.77 |
| CC(C)(C)c1ccc(O)c(CNC2CCCCC2)c1 | 6.74 |
| O=[N+]([O-])c1ccc(C=NNc2nc3ccccc3[nH]2)cc1 | 6.62 |
| COc1ccc(CCN2CCC(CN(C)Cc3cnn(-c4ccccc4)c3)CC2)cc1 | 5.57 |
| O=C(NC(c1ccccc1)c1ccc2cccnc2c1O)c1ccccc1 (stereo not given) | 6.37 |
| COCCNC(=O)c1ccc(OC2CCN(Cc3ccc(F)c(F)c3)CC2)c(Cl)c1 | 6.12 |
| CCCCNc1nc(NC(C)(C)C)nc(NC(C)(C)C)n1 | 6.05 |
| COc1ccc(CNC(=O)c2cc3c(=O)n4ccccc4nc3n(CCc3ccccc3)c2=N)cc1 | 5.91 |
| CCOC(=O)c1c(NC(=O)c2ccccc2)sc2c(O)c(CN(CC)CC)ccc12 | 6.90 |
| O=C(NC1CCCC1)c1ccc(N2CCC(NCc3cccc(C(F)(F)F)c3)CC2)cc1 | 6.33 |
| CCOc1cc(Br)c(C(C)NC(=O)c2cccc(OC)c2)cc1OCC (stereo not given) | 5.84 |
| CC(C)=CCN1CCC(C(=O)Nc2ccc(-c3nc4ccccc4[nH]3)cc2)CC1 | 5.91 |
| CCOc1cc(Cl)c(C(C)NC(=O)c2cccc(OC)c2)cc1OCC (stereo not given) | 6.19 |

| Structure (SMILES) | pIC50 |
| --- | --- |
| O=C(CCc1ccco1)NC1CCN(CC2(c3ccc(Cl)cc3)CCC2)CC1 | 5.99 |
| Cc1cc(Nc2ccc(C)c(Cl)c2)n2nc(C(F)(F)F)nc2n1 | 5.91 |
| FC(F)(F)c1cccc(Nc2nc(-c3ccccc3)nc3ncccc23)c1 | 6.05 |
| Nc1ccc(-c2nc3cc(Cc4ccc5[nH]c(-c6ccc(N)cc6)nc5c4)ccc3[nH]2)cc1 | 5.74 |
| CC(=O)c1sc(NC(=O)Nc2ccc(C)cc2C)nc1C | 5.70 |
| Cn1c(=O)n(C)c2cc(CNCCNc3ccnc4cc(Cl)ccc34)ccc21 | 6.71 |
| COc1ccc(CNC2CCN(c3ccc(NC(=O)c4cccc(Cl)c4)cc3)CC2)cc1OC | 5.93 |
| COCCN(C(=O)Cc1cccs1)C(C(=O)NCc1ccc(OC)cc1)c1ccc(C(C)C)cc1 (stereo not given) | 6.01 |
| CC(NCc1ccccc1)c1cc(Cl)ccc1O (stereo not given) | 6.30 |
| O=c1cc(NC2CCN(CCCc3ccccc3)CC2)c2cc(Cl)ccc2o1 | 6.27 |
| Cc1ccc(OCCCCCCNCCO)c(C)c1 | 5.61 |
| FC(F)(F)c1cccc(CNC2CCN(CCc3ccccc3)CC2)c1 | 6.31 |
| Oc1ccc(Cl)cc1CNc1nc2ccccc2[nH]1 | 6.00 |
| CCOc1cc(Cl)c(C(C)NC(=O)c2ccccc2)cc1OCC (stereo not given) | 6.08 |
| C=CC12CCN(CC1)C(C(O)c1ccnc3ccc(OC)cc13)C2 (stereo not given) | 6.38 |
| O=C(c1ccccc1F)N(Cc1ccc(Cl)cc1)c1ccccn1 | 5.92 |
| COCCn1c(C)nc2ccccc2c1=O | 6.03 |
| O=C(Nc1cccc(-c2nc3ccccc3[nH]2)c1)c1cccc(NC(=O)c2ccco2)c1 | 6.30 |
| COc1ccc(C(=O)Nc2ccc(Cl)cc2C(=O)Nc2ccncc2)cc1 | 6.09 |
| O=C(Nc1ccc(CN2CCOCC2)cc1)c1ccc(-c2ccc(Br)cc2)o1 | 6.02 |
| COc1ccccc1CNC(=O)CCn1c(=O)[nH]c2ccccc2c1=O | 6.29 |
| OC(Cn1nnc2ccccc21)Cn1c2ccc(Br)cc2c2cc(Br)ccc21 (stereo not given) | 5.69 |
| O=C(Nc1ccc(Cl)cc1)N1CCN(c2ccc3nncn3n2)CC1 | 5.98 |

| Structure (SMILES) | pIC50 |
| --- | --- |
| CN(C)c1ccc(-c2nc3cc(N)ccc3[nH]2)cc1 | 5.91 |
| Cc1ccc2cc3c(N)c4c(C)ccc(C)c4nc3nc2c1 | 5.84 |
| COc1ccccc1C(=O)ON=C(N)Cc1cccc2ccccc12 | 5.40 |
| O=C(CSc1ccc2nnc(-c3cccc(F)c3)n2n1)Nc1ccc2c(c1)OCO2 | 6.27 |
| CCCCNCC(O)(c1ccc(Cl)cc1)c1ccc(Cl)cc1 | 6.38 |
| CCCC(c1nnnn1C1CCCCC1)N1CCN(C(=O)c2ccco2)CC1 (stereo not given) | 6.29 |
| COc1cc(C(=O)ON=C(N)Cc2cccc3ccccc23)cc(OC)c1OC | 5.40 |
| CCCc1cc(O)c2c3c(c(=O)oc2c1)CN(C)CC3 | 5.59 |
| CC(C)(C)C(=O)Nc1ccc(C(=O)Nc2cccc(-c3nc4ccccc4[nH]3)c2)cc1 | 6.12 |
| COc1ccc(-c2nonc2NC(=O)c2cccc(C)c2)cc1OC | 6.04 |
| Cc1ccc(CN2CCC(C(=O)Nc3ccc(-c4cc5ccccc5[nH]4)cc3)CC2)o1 | 6.34 |
| OC(CNC1CCCCC1)Cn1c2ccc(I)cc2c2cc(I)ccc21 (stereo not given) | 6.36 |
| CCn1c(SCC(=O)Nc2cc(C(F)(F)F)ccc2Cl)nc2ccccc2c1=O | 6.04 |
| O=C(Nc1ccsc1C(=O)NC1CCCCC1)c1ccc(F)cc1 | 5.98 |
| O=C(Nc1ccc(Cl)cc1C(=O)Nc1ccncc1)c1ccc(Cl)cc1Cl | 6.06 |
| O=C(Nc1cccc(C(F)(F)F)c1)c1cc(Cl)ccc1O | 5.96 |
| CCc1ccc(CNCC(O)c2ccccc2)cc1 (stereo not given) | 5.73 |
| CCOc1ccc(-c2nonc2NC(=O)c2cccc(C)c2)cc1OCC | 6.81 |
| COc1ccc(C2N(C)c3ccccc3N2C)cc1 | 5.96 |
| COc1cccc(C(=O)NC(c2ccc(C)cc2)c2cc(Cl)c3cccnc3c2O)c1 (stereo not given) | 6.03 |
| COc1ccc2c(=O)cc(C(Cl)(Cl)Cl)oc2c1 | 6.02 |
| CC(C)(C)CC(C)(C)NCC(O)COc1ccc2c(c1)CCC2 (stereo not given) | 5.76 |
| CCOc1ccc(/C=C/c2nc(=O)c3ccccc3o2)cc1 | 6.13 |

| Structure (SMILES) | pIC50 |
| --- | --- |
| O=C(Nc1ccccc1O)c1ccc(-c2ccc(Cl)cc2Cl)o1 | 5.52 |
| O=C(Nc1nc(-c2ccccn2)cs1)c1ccccc1Br | 5.79 |
| O=C(Nc1ccc(F)c(Cl)c1)Nc1ccc(Cl)c(Cl)c1 | 5.74 |
| CCOC(=O)C1(Cc2ccccc2)CCN(Cc2cccc(OC)c2O)CC1 | 5.66 |
| Oc1ccc(C(=C(Cl)Cl)c2ccc(O)cc2)cc1 | 5.72 |
| CCOc1ccc(-c2nc(NC(=O)c3cccc(S(C)(=O)=O)c3)sc2C)cc1 | 5.84 |
| COc1ccc(C(=O)NC(c2ccccc2Cl)c2cc(Cl)c3cccnc3c2O)cc1 (stereo not given) | 6.01 |
| COc1ccc(CN2CCN(Cc3ccccc3)CC2)c(O)c1 | 5.95 |
| CCCCCCc1cc(O)c2c3c(c(=O)oc2c1)CCC(C)C3 (stereo not given) | 6.25 |
| COc1ccccc1N1CCN(C(CNS(=O)(=O)c2ccc(Cl)cc2)c2cccnc2)CC1 (stereo not given) | 6.04 |
| Oc1ccc(Br)cc1CN1CCN(Cc2ccc(Cl)cc2)CC1 | 5.82 |
| CCCc1c(C)nc2ccccc2c1O | 6.20 |
| CC1=C(CC(=O)c2cccc([N+](=O)[O-])c2)C(=O)c2ccccc2C1=O | 6.89 |
| CCCCCCc1cc2cc(-c3nc4ccccc4[nH]3)c(=Nc3ccccc3C)oc2cc1O | 5.24 |
| CCOc1c(Cl)cc(CNC(C)C(O)c2ccccc2)cc1OC (stereo not given) | 5.87 |
| COc1ccc(C(=O)C2CC2c2ccc(Cl)cc2)cc1 (stereo not given) | 5.48 |
| CCN(CC)CCCNc1nc(-c2ccc(Cl)cc2)nc2ccccc12 | 6.37 |
| O=c1c2c([nH]c3ccccc13)CCCC2 | 6.06 |
| CN1c2ccccc2N(C)C1c1ccc2c(c1)OCO2 | 5.94 |
| CC1CC2=C(CC1CNCCCN(C)C)C(C)(C)CCC2 (stereo not given) | 6.32 |
| O=C(NCC1Cc2cccc(-c3ccncc3)c2O1)c1csc2c1CCCC2 (stereo not given) | 5.77 |
| Cc1c(C)n(CC(O)CNC2CCCCC2C)c2ccccc12 (stereo not given) | 6.32 |
| C=C(C)CCC(C)N1CCC(N2CCC(C(=O)NCCc3ccccc3)CC2)CC1 (stereo not given) | 5.84 |
